Earlier results as cited in EP2703009A1, “Combination treatments involving antibodies to human PCSK9” (SANOFI, priority 2012, dated 2014).

How the values were obtained:
[1] = after oral administration; cited from earlier work
[2] = tested on: PCSK9; conditions: stated as known for statins and ezetimibe; limited or no information on ezetimibe alone; cited from earlier work
[3] = in vivo; cited from earlier work
[4] = tested on: patients with genotype-confirmed hoFH; conditions: ezetimibe 10 mg/day added to the maximal dose of statins; cited from earlier work

| Structure (SMILES) | half-life (elimination from plasma) [1] | PCSK9 expression [2] | Frequent adverse events reported [3] | total reduction of LDL-C levels [4] [%] | Less frequently reported adverse events [3] |
| --- | --- | --- | --- | --- | --- |
| CC(C)(Oc1ccc(C(=O)c2ccc(Cl)cc2)cc1)C(=O)O [Fenofibric acid] | 20 h |  |  |  |  |
| O=C(O)[C@H]1O[C@@H](Oc2ccc([C@@H]3[C@@H](CC[C@H](O)c4ccc(F)cc4)C(=O)N3c3ccc(F)cc3)cc2)[C@H](O)[C@@H](O)[C@@H]1O [ezetimibe-glucuronide] | approximately 22 hours |  |  |  |  |
| O=C1[C@H](CC[C@H](O)c2ccc(F)cc2)[C@@H](c2ccc(O)cc2)N1c1ccc(F)cc1 [ezetimibe] |  | upregulated | abdominal pain, diarrhea, flatulence, fatigue, increase ALT/AST, headache and myalgia | 27 |  |
| CC(C)OC(=O)C(C)(C)Oc1ccc(C(=O)c2ccc(Cl)cc2)cc1 [fenofibrate] |  |  | abdominal pain, nausea, vomiting, diarrhea, flatulence, increase ALT/AST |  | pancreatitis, thromboembolism (pulmonary embolism, deep venous thrombosis), biliary lithiasis, rash, pruritus, urticaria, photosensitivity reaction, increase creatinine and increase urea |
